# Measurements reported in PMC10302231, “Enhancing Cell Penetration Efficiency of Cyclic Oligoarginines Using Rigid Scaffolds” (Pharmaceutics, 2023).
# Where a SMILES comes first, the peptide text is derived from it. Bridges are numbered along the chain shown (N, C = ends). The star is where a group is joined. 5FAM = O=C1OC2(c3ccc(O)cc3Oc3cc(O)ccc32)c2ccc(C(=O)*)cc21
# Experiments:
# [1] = test system: EBC-1 human lung squamous cancer cells; experiment: Cellular uptake (internalization) of Cf-labelled peptides by flow cytometry; assay type: cell-based; conditions: 90 min; for cellular uptake compared with linear peptide Acyl-Met-(Arg)6-Met-(Gly)4-Lys(Cf) / efficacy (internalization) of tetra- versus hexaarginine bicyclic derivative / internalization compared with octaarginine (in words): EBC-1 cells, 1, 5, 10 µM; for internalization relative to octaarginine (Cf-Arg8): Cf-labelled peptides at 1, 5, 10 µM, trypsin treatment, flow cytometry fluorescence intensity, mean ± SD
# Method: The internalization study of fluorophore-labeled peptides was performed on 24-well plates with 10^5 EBC-1 human lung squamous cancer cells (CRL-5889TM) per well. After 24 h incubation at 37 °C, the cells were treated with a serum-free medium as a negative control and with peptides in different concentrations (1, 5, 10 μM). After the incubation, 100 μL trypsin (0.25%) was used for 5–10 min to remove the excess peptides from the membranes and to detach the cells from the plates. By adding 800 µL of HPMI buffer (glucose, NaHCO3, NaCl, HEPES, KCl, MgCl2, CaCl2, Na2HPO4 × 2 H2O) containing 10% fetal bovine serum (FBS), the trypsin activity was stopped, and the cells were transferred to tubes for measurement. The cells were centrifuged at 216× g at 4 °C, and the supernatant was disposed of. The resuspended cells (in 250 μL HPMI) were used to measure their fluorescence intensity by flow cytometer (BDLSR II, BD Bioscience, San Jose, CA, USA). Data were analyzed with FACSDiVa 5.0 software (BD Bioscience, San Jose, CA, USA).
# The internalization of peptides was measured by flow cytometry on EBC-1 cells. The carboxyfluorescein-labeled peptides were studied at 1, 5, and 10 μM concentrations. The cells were treated for 90 min at 37 °C.
# EBC-1 cells = experiment: Cellular uptake after pretreatment with endocytosis inhibitors, flow cytometry; assay type: cell-based, human; conditions: peptide 5 μM 90 min 37 °C; for effect of CPZ (clathrin-mediated endocytosis inhibitor) on cellular uptake: CPZ 30 μM pretreatment 30 min
# Method: In order to study the effect of inhibitors, the peptide conjugates were administered at 5 μM when the cells were pretreated by the inhibitors for 30 min. The cells were then kept at 37 °C for 90 min. Macropinocytosis was inhibited using 5-(N-ethyl-N-isopropyl)amiloride (EIPA), clathrin-mediated endocytosis with chlorpromazine (CPZ), colchicine (Col) to assess the role of microtubules, and methyl-β-cyclodextrin (CyD) for the inhibition of caveolae/lipid-raft-mediated endocytosis.
# The CPPs can use several pathways to enter the cell. The dependence of the cellular uptake was measured for each Dabcyl-containing cyclic BBMB peptide using different inhibitors (Figure 7). The 5-(N-ethyl-N-isopropyl)amiloride (EIPA) inhibits macropinocytosis, chlorpromazine (CPZ) inhibits clathrin-mediated endocytosis, and colchicine (COL) was used to inhibit microtubule formation. Finally, methyl-beta-cyclodextrin (CyD) was used to inhibit caveolae-mediated endocytosis.
# Figure 7 Effect of endocytosis inhibitors on the cellular uptake of peptides. Before the treatment with the peptide conjugates (5 μM) for 90 min, the EBC-1 cells were pretreated with inhibitors EIPA (50 μM), CPZ (30 μM), CyD (5 mM), and COL (10 mM) for 30 min. Significant difference from the control was measured using Student’s t-test (* p < 0.05). Data represent the mean ± standard deviation (SD).
# [2] = Stability measurement in 25% human plasma; assay type: in vitro ADME; conditions: 25% human plasma (sodium citrate), 37 °C, aliquots at 0, 1 and 24 h, RP-HPLC; preliminary experiment
# Method: The analysis was carried out based on the details described in Yuchen Hu et al.. The linear (Dabcyl-Met-(Arg)6-Met-(Gly)4-Lys(Cf)) and cyclic (Dabcyl-Cys-(Arg)6-Cys-(Gly)4-Lys(Cf) para BBMB) peptides were incubated with 25% human plasma at 37 °C. An aliquot of the peptide; human plasma mixture was taken at time points 0, 1, and 24 h. The samples were analyzed by RP-HPLC.
# The molecular weight of peptides and conjugates was determined with ESI-MS using Bruker Amazon SL (Germany). The samples were dissolved in water-acetonitrile solution (50:50) with 0.1% formic acid. The samples were directly injected with a syringe pump.
# Parameters: capillary voltage: 4 kV, nebulizer gas: 10 psi, dry gas: 4 L/min, heated capillary temperature: 250 °C.
# EBC-1 human lung squamous cancer cells (CRL-5889TM) were used for the in vitro analysis. These cells were a generous gift of Prof. […]
# Analytical RP-HPLC was performed on Exformma (Exformma Technology (ASIA) Co., Ltd, Hong Kong, China) HPLC system. […] Linear gradient elution (0 min 0% B; 2 min 0% B; 22 min 90% B) was used with eluent A (0.1% TFA in water) and eluent B (0.1% TFA in acetonitrile-water (80:20, v/v)) at 1mL/min flowrate, the peaks were detected at λ= 220 nm for both analytical and preparative RP-HPLC. […]
# Samples were taken in 0, 1 and 24 hour time periods and measured with analytical HPLC. […]
molecule,measurement,setting,value
CC(=O)N[C@H]1CSSC[C@@H](C(=O)NCC(=O)NCC(=O)NCC(=O)NCC(=O)N[C@@H](CCCCNC(=O)c2ccc3c(c2)C(=O)OC32c3ccc(O)cc3Oc3cc(O)ccc32)C(N)=O)NC(=O)[C@H](CCCNC(=N)N)NC(=O)[C@H](CCCNC(=N)N)NC(=O)[C@H](CCCNC(=N)N)NC(=O)[C@H](CCCNC(=N)N)NC(=O)[C@H](CCCNC(=N)N)NC(=O)[C@H](CCCNC(=N)N)NC1=O [Acyl-Cys((Arg)6-Cys)-(Gly)4-Lys(Cf)] (Ac-CRRRRRRCGGGGK(5FAM)-NH2; disulfide 1-8),efficiency of cellular uptake compared with octaarginine at 5 µM,"[1]; EBC-1 cells, 5 µM, 37 °C, flow cytometry",the same
same,efficiency of cellular uptake compared with octaarginine at 10 µM,"[1]; EBC-1 cells, 10 µM, 37 °C, flow cytometry",almost half
same,cellular uptake compared with linear peptide Acyl-Met-(Arg)6-Met-(Gly)4-Lys(Cf),"[1]; 37 °C, flow cytometry",better cellular uptake
same,cellular uptake compared with linear peptide Acyl-Met-(Arg)6-Met-(Gly)4-Lys(Cf),"[1]; 37 °C, flow cytometry, listed as Acyl-Cys-(Arg)6-Cys-(Gly)4-Lys(Cf)",did increase the internalization
Acyl-Cys-(Arg)2-Cys-(Arg)2-Cys-Lys(Cf) TBMB (bicyclic or more) [acylated bicyclic tetraarginine peptide on TBMB scaffold],efficacy (internalization) of tetra- versus hexaarginine bicyclic derivative,[1]; flow cytometry,no difference
Acyl-Cys-(Arg)3-Cys-(Arg)3-Cys-Lys(Cf) TBMB (bicyclic or more) [acylated bicyclic hexaarginine peptide on TBMB scaffold],efficacy (internalization) of tetra- versus hexaarginine bicyclic derivative,[1]; flow cytometry,no difference
"Dabcyl-(Arg)6-Cys-(Gly)4-Cys-Lys(Cf) orto BBMB (sidechain bridge or staple) [Dabcyl cyclic peptide, orto BBMB, hexaarginine at N-terminus]",effect of CPZ (clathrin-mediated endocytosis inhibitor) on cellular uptake,EBC-1 cells,inhibits
"Dabcyl-(Arg)6-Cys-(Gly)4-Cys-Lys(Cf) para BBMB (sidechain bridge or staple) [Dabcyl cyclic peptide, para BBMB, hexaarginine at N-terminus]",effect of CPZ (clathrin-mediated endocytosis inhibitor) on cellular uptake,EBC-1 cells,inhibits
"Dabcyl-Cys((Arg)6-Cys)-(Gly)4-Lys(Cf) (disulfide) [Dabcyl cyclic peptide with disulfide bond, Cf-labelled]",internalization compared with octaarginine (in words),"[1]; 37 °C, flow cytometry",still better
same,internalization relative to octaarginine (Cf-Arg8),"[1]; EBC-1 cells, 37 °C",1.5–2 fold
Dabcyl-Cys-(Arg)4-Cys-(Arg)4-Cys-Lys(Cf) TBMB (bicyclic or more) [Dabcyl bicyclic octaarginine peptide on TBMB scaffold],internalization compared with octaarginine (in words),"[1]; 37 °C, flow cytometry",better internalization
same,internalization relative to octaarginine (Cf-Arg8),"[1]; EBC-1 cells, 37 °C",3 fold
"Dabcyl-Cys-(Arg)6-Cys-(Gly)4-Lys(Cf) orto BBMB (sidechain bridge or staple) [Dabcyl cyclic peptide, orto BBMB, hexaarginine in the cycle]",internalization relative to octaarginine (Cf-Arg8),"[1]; EBC-1 cells, 37 °C",5 fold
same,effect of CPZ (clathrin-mediated endocytosis inhibitor) on cellular uptake,EBC-1 cells,inhibits
"Dabcyl-Cys-(Arg)6-Cys-(Gly)4-Lys(Cf) para BBMB (sidechain bridge or staple) [Dabcyl cyclic peptide, para BBMB, hexaarginine in the cycle]",toxicity in the uptake experiment,"[1]; EBC-1 cells, 10 µM, 37 °C",showed toxicity
same,internalization relative to octaarginine (Cf-Arg8),"[1]; EBC-1 cells, 37 °C",5 fold
same,effect of CPZ (clathrin-mediated endocytosis inhibitor) on cellular uptake,EBC-1 cells,inhibits
same,stability in 25% human plasma,[2],stable
"Dabcyl-Cys-(Gly)4-Cys-(Arg)6-Lys(Cf) orto BBMB (sidechain bridge or staple) [Dabcyl cyclic peptide, thioether bonds to orto BBMB, hexaarginine at C-terminus]",effect of EIPA (macropinocytosis inhibitor) on cellular uptake,"EBC-1 cells; EIPA 50 μM pretreatment 30 min, Student's t-test p < 0.05",did not have an effect
